Consider 22 compounds from paper PMC3601546 (Bioorganic & medicinal chemistry letters, 2012).

For the first data set, the target named is T1, human NPBWR1 (Homo sapiens, UniProt P48145).
T1 sequence (P48145 1-328): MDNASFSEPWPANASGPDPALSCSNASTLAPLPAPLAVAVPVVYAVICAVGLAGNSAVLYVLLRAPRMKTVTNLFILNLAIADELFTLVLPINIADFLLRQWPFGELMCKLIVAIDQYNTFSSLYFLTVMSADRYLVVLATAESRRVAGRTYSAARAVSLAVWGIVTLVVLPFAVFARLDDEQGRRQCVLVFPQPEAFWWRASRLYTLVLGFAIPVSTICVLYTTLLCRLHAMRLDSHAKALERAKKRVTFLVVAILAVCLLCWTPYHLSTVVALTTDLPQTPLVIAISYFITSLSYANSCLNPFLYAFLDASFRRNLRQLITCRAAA
Nature of the data set: NPBWR1 antagonist calcium release. Type of data set: cell-based.
Details: not given
Take `COc1ccc(Oc2c(-c3ccccc3)cnn(-c3ccc(C)cc3)c2=O)cc1` [9d]: the “NPBWR1 antagonist activity in words” value is listed as “drastic loss in potency”. `COc1ccc(Oc2c(C(=O)O)cnn(-c3ccc(C(C)C)cc3)c2=O)cc1` [9m]: the “NPBWR1 antagonist activity in words” value is “inactive”. With `COc1ccc(Oc2ccnn(-c3ccc(C(C)C)cc3)c2=O)cc1` [9o], the “NPBWR1 antagonist activity in words” value is “Total loss of potency”. Same read-out and setting: in the case of `COc1ccc(Oc2c(N)cnn(-c3ccc(C(C)C)cc3)c2=O)cc1` [9p] it was “Total loss of potency”; in that of `COc1ccc(Oc2c(NC(C)=O)cnn(-c3ccc(C(C)C)cc3)c2=O)cc1` [9q], “Total loss of potency”; in that of `COc1ccc(Oc2c(Cl)c(C(=O)O)nn(-c3ccc(C(C)C)cc3)c2=O)cc1` [9t], “Total loss of activity”.

The same data set, now with this note: ratio of NPBWR1 IC50 vs 1a.
For `COc1ccc(Oc2c(Cl)cnn(-c3ccc(C)c(C)c3)c2=O)cc1` [1s], the “fold more potent than the hit 1a” value was “~ fourfold”.

Regarding `Cc1ccc(-n2ncc(Cl)c(Oc3ccc(C(F)(F)F)cc3)c2=O)cc1` [6e], the “fold more potent than the hit 1a” value is recorded as 2- to 3 fold.

Still in this data set, the particulars now being: ratio of NPBWR1 IC50 vs 1j.
As to `CC(C)c1ccc(-n2ncc(Cl)c(Oc3ccc(O)cc3)c2=O)cc1` [6i], the “fold less potent than 1j” value is listed as ~ 18 fold. As for `CC(C)c1ccc(-n2ncc(Cl)c(Oc3ccc(OC(F)(F)F)cc3)c2=O)cc1` [6j], the “fold less potent than 1j” value was around 45 fold. The same measure, in the same setting: in the case of `CC(C)c1ccc(-n2ncc(Cl)c(Oc3ccc(C(=O)CN)cc3)c2=O)cc1` [6l] it was “eightfold”; in that of `COc1ccc(Oc2c(C)cnn(-c3ccc(C(C)C)cc3)c2=O)cc1` [9g], ~ 28 fold; in that of `C=Cc1cnn(-c2ccc(C(C)C)cc2)c(=O)c1Oc1ccc(OC)cc1` [9h], around 9 fold.

Regarding `COc1ccc(Oc2c(C=O)cnn(-c3ccc(C(C)C)cc3)c2=O)cc1` [9j], the “fold less potent than 1j” value was ~ 23 fold.

With `COc1ccc(Oc2c(CO)cnn(-c3ccc(C(C)C)cc3)c2=O)cc1` [9k], the “fold less potent than 1j” value is reported as ~ 21 fold.

On to `COc1ccc(Oc2c(C#N)cnn(-c3ccc(C(C)C)cc3)c2=O)cc1` [9l], for which the “fold less potent than 1j” value is recorded as ~ 15 fold. As to `COC(=O)c1cnn(-c2ccc(C(C)C)cc2)c(=O)c1Oc1ccc(OC)cc1` [9n], the “fold less potent than 1j” value is 10 fold. As to `CCOC(=O)c1nn(-c2ccc(C(C)C)cc2)c(=O)c(Oc2ccc(OC)cc2)c1Cl` [9s], the “fold less potent than 1j” value came to 13 fold. As to `COC(=O)c1nn(-c2ccc(C(C)C)cc2)c(=O)c(Oc2ccc(OC)cc2)c1Cl` [9u], the “fold less potent than 1j” value stood at 13 fold.

Staying with this data set, now noted: ratio of NPBWR1 IC50 vs 1t.
Take `COc1ccc(Oc2c(Cl)c(OC)nn(-c3cccc(C)c3)c2=O)cc1` [9r]: the “fold decrease in potency compared to 1t” value is reported as ~ 3.5 fold.

The data set is the same for the next values; noted with them: ratio of NPBWR1 IC50 vs 9a.
Take `COc1ccc(Oc2c(C3CC3)cnn(-c3ccc(C)cc3)c2=O)cc1` [9f]: the “fold loss in potency compared to 9a” value is “~ eightfold”.

A further data set has as its system Ricerca panel of 35 therapeutically relevant off-target proteins including GPCRs, enzymes and ion channels. The data set can be described thus: Selectivity profile against Ricerca panel of 35 off-target proteins. To be noted: at 10 μM.
As for `COc1ccc(Oc2c(Cl)cnn(-c3cc(C)cc(C)c3)c2=O)cc1` [1z, 5-chloro-2-(3,5-dimethylphenyl)-4-(4-methoxyphenoxy)pyridazin-3(2H)-one], the “stimulation/inhibition against the pool of tested off-targets” value is reported as below 50%.

For a further data set, the system named is HT29 cells. The data set can be described thus: Viability assay on HT29 cells. The note with it: final tested concentration of 20 μM. The data set is classed as cell-based.
Consider `COc1ccc(Oc2c(Cl)cnn(-c3cc(C)cc(C)c3)c2=O)cc1` [1z, 5-chloro-2-(3,5-dimethylphenyl)-4-(4-methoxyphenoxy)pyridazin-3(2H)-one], for which the “cytotoxicity in viability assay” value is recorded as “non cytotoxic”.
